Consider 19 compounds from US8263606B2 (Xenon Pharmaceuticals Inc., priority 2008, dated 2012).

The structures appear in SMILES notation. Some results are limits rather than exact numbers.

One data set deals with sodium channel. Nature of the data set: Guanidine influx assay (14C-guanidine radiotracer flux, in vitro). The format is cell-based, human or rat. The conditions noted are these: guanidine influx assay using a known cell line that expresses a sodium channel; activity level class. Summed up: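 Human or rat sodium channels stably expressed in endogenous or recombinant cells, plated ~100,000 cells/well for 20-24 h at 37 °C. Cells were treated with test agent in low-sodium choline HEPES saline plus aconitine and 14C-guanidine at ambient temperature, washed, and counted by scintillation; IC50 from 4-parameter logistic fit.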

The target of a further data set is CYP3A4 (Homo sapiens, UniProt P08684). Nature of the data set: Cytochrome P450 (CYP450) Inhibition Assay, CYP3A4 (Vivid fluorescence, BOMCC substrate). The conditions noted are these: human, P450 Baculosomes (recombinant CYP3A4), probe BOMCC (Vivid substrate).
Chain of CYP3A4 (P08684 whole entry): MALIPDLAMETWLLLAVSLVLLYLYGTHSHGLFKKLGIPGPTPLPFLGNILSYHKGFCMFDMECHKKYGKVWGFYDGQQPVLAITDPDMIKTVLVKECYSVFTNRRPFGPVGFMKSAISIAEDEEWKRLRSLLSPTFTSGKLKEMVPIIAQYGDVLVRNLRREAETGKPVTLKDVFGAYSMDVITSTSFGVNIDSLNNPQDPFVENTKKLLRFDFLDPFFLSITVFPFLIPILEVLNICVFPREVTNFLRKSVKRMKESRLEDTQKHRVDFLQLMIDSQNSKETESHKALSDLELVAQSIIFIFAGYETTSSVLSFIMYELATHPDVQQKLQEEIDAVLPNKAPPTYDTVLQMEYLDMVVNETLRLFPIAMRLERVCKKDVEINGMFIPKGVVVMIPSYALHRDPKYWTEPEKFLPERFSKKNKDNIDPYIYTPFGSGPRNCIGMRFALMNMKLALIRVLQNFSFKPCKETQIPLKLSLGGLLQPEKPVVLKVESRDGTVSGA

For `O=C1N(Cc2ccccn2)c2ccccc2C12COc1cc3c(cc12)OCC3` (stereo not drawn) [Example 4.52, 1′-(pyridin-2-ylmethyl)-6,7-dihydrospiro[benzo[1,2-b:4,5-b′]difuran-3,3′-indol]-2′(1′H)-one], the melting point was in the range of 198 to 200 °C. In the data set on sodium channel, the IC50 was 0.001 to 0.1 µM. Besides, the inhibition at 10 µM on CYP3A4 was less than 50%.
As for `O=C1N(C[C@H]2CCCO2)c2ccccc2C12COc1cc3c(cc12)CCCO3` (stereo partly drawn) [Example 4.53, 1′-[(2R)-tetrahydrofuran-2-ylmethyl]-6,7-dihydro-5H-spiro[furo[3,2-g]chromene-3,3′-indol]-2′(1′H)-one], the melting point was 151 to 156 °C. Further, in the data set on sodium channel, the IC50 fell in the range of 0.1 to 1 µM. Besides, at CYP3A4, the inhibition at 10 µM is less than 50%.
`Cc1nc2cc3c(cc2s1)C1(CO3)C(=O)N(CCC(C)C)c2ccccc21` (stereo not drawn) [Example 4.56, 2-methyl-1′-(3-methylbutyl)spiro[furo[2,3-f][1,3]benzothiazole-7,3′-indol]-2′(1′H)-one] had a melting point of 137 to 138 °C. Also, in the data set with sodium channel, the IC50 is 1 to 10 µM. Besides, the inhibition at 10 µM on CYP3A4 was more than 50%.
For the compound `Cc1nc2cc3c(cc2s1)C1(CO3)C(=O)N(CC2CCOCC2)c2ccccc21` (stereo not drawn) [Example 4.57, 2-methyl-1′-(tetrahydro-2H-pyran-4-ylmethyl)spiro[furo[2,3-f][1,3]benzothiazole-7,3′-indol]-2′(1′H)-one], the melting point lay within 186 to 187 °C. In addition, the IC50 with sodium channel lay in the range of 1 to 10 µM. Further, the inhibition at 10 µM on CYP3A4 was more than 50%.
The compound `Cc1nc2cc3c(cc2o1)C1(CO3)C(=O)N(C[C@H]2CCCO2)c2ccccc21` (stereo partly drawn) [Example 4.58, 2-methyl-1′-[(2R)-tetrahydrofuran-2-ylmethyl]spiro[furo[2,3-f][1,3]benzoxazole-7,3′-indol]-2′(1′H)-one] had a melting point of 188 to 190 °C. Further, the IC50 with sodium channel is 1 to 10 µM. The inhibition at 10 µM on CYP3A4 is less than 50%.
In the same order, the values of `CN1C(=O)COc2cc3c(cc21)C1(CO3)C(=O)N(C[C@H]2CCCO2)c2ccccc21` (stereo partly drawn) [Example 4.59, 1-methyl-1′-[(2R)-tetrahydrofuran-2-ylmethyl]-1H-spiro[furo[3,2-g][1,4]benzoxazine-8,3′-indole]-2,2′(1′H-3H)-dione] are 79 to 81 °C, 1 to 10 µM and less than 50%.
Regarding `Cn1c(=O)oc2cc3c(cc21)C1(CO3)C(=O)N(C[C@H]2CCCO2)c2ccccc21` (stereo partly drawn) [Example 4.60, 1-methyl-1′-[(2R)-tetrahydrofuran-2-ylmethyl]spiro[furo[3,2-f][1,3]benzoxazole-7,3′-indole]-2,2′(1′H,1′H)-dione], the melting point is more than 250 °C. In the data set with sodium channel, the IC50 is 1 to 10 µM. Moreover, the inhibition at 10 µM at CYP3A4 was less than 50%.
In the same order, the values of `COc1cc2c(cc1C)C1(CO2)C(=O)N(C[C@H]2CCCO2)c2ccccc21` (stereo partly drawn) [Example 4.61, 6-methoxy-5-methyl-1′-[(2R)-tetrahydrofuran-2-ylmethyl]spiro[1-benzofuran-3,3′-indol]-2′(1′H)-one] are 151 to 153 °C, 1 to 10 µM and less than 50%.
The compound `COc1cc2c(cc1C)C1(CO2)C(=O)N(CC2CCCCO2)c2ccccc21` (stereo not drawn) [Example 4.63, 6-methoxy-5-methyl-1′-(tetrahydro-2H-pyran-2-ylmethyl)spiro[1-benzofuran-3,3′-indol]-2′(1′H)-one] returned a melting point of 180 to 182 °C. Besides, in the data set with sodium channel, the IC50 fell in the range of 1 to 10 µM. Moreover, the inhibition at 10 µM on CYP3A4 is more than 50%.
On the same counts, the results for `COc1cc2c(cc1F)C1(CO2)C(=O)N(CC2CCCCO2)c2ccccc21` (stereo not drawn) [Example 4.64, 5-fluoro-6-methoxy-1′-(tetrahydro-2H-pyran-2-ylmethyl)spiro[1-benzofuran-3,3′-indol]-2′(1′H)-one] are 131 to 133 °C, 0.1 to 1 µM and less than 50%.
In the same order, the values of `COc1cc2c(cc1F)C1(CO2)C(=O)N(Cc2ccccn2)c2ccccc21` (stereo not drawn) [Example 4.65, 5-fluoro-6-methoxy-1′-(pyridin-2-ylmethyl)spiro[1-benzofuran-3,3′-indol]-2′(1′H)-one] are 142 to 144 °C, 0.1 to 1 µM and less than 50%.
`COc1cc2c(cc1F)C1(CO2)C(=O)N(C[C@H]2CCCO2)c2ccccc21` (stereo partly drawn) [Example 4.66, 5-fluoro-6-methoxy-1′-[(2R)-tetrahydrofuran-2-ylmethyl]spiro[1-benzofuran-3,3′-indol]-2′(1′H)-one]: the melting point is 106 to 116 °C. In the data set on sodium channel, the IC50 fell in the range of 0.1 to 1 µM. The inhibition at 10 µM on CYP3A4 was less than 50%.
Compound `COc1cc2c(cc1F)C1(CO2)C(=O)N(Cc2ccccc2)c2ccccc21` (stereo not drawn) [Example 4.67, 1′-benzyl-5-fluoro-6-methoxyspiro[1-benzofuran-3,3′-indol]-2′(1′H)-one] had a melting point of 160 to 162 °C. In addition, the IC50 in the data set on sodium channel fell in the range of 0.1 to 1 µM. Besides, the inhibition at 10 µM on CYP3A4 was less than 50%.
`O=C1CC[C@@H](CN2C(=O)C3(COc4cc5c(cc43)OCO5)c3ccccc32)N1` (stereo partly drawn) [Example 4.72, 1′-{[(2S)-5-oxopyrrolidin-2-yl]methyl}spiro[furo[2,3-f][1,3]benzodioxole-7,3′-indol]-2′(1′H)-one] gave a melting point of 121 to 130 °C. Besides, the IC50 with sodium channel lay in the range of 1 to 10 µM. The inhibition at 10 µM at CYP3A4 was more than 50%.
For the compound `N#CCN1C(=O)C2(COc3cc4c(cc32)OCO4)c2ccccc21` (stereo not drawn) [Example 4.73, (2′-oxospiro[furo[2,3-f][1,3]benzodioxole-7,3′-indol]-1′(2′H)-yl)acetonitrile], the melting point lay in the range of 170 to 172 °C. Moreover, in the data set with sodium channel, the IC50 was in the range of 0.001 to 0.1 µM. In addition, at CYP3A4, the inhibition at 10 µM is more than 50%.
On the same counts, the results for `O=C1N(Cc2ccc(C(F)(F)F)o2)c2c(C(F)(F)F)cccc2C12COc1cc3c(cc12)OCO3` (stereo not drawn) [Example 4.74, 7′-(trifluoromethyl)-1′-{[5-(trifluoromethyl)-2-furyl]methyl}spiro[furo[2,3-f][1,3]benzodioxole-7,3′-indol]-2′(1′H)-one] are 95 to 98 °C, 0.1 to 1 µM and more than 50%.
On the same counts, the results for `O=C1N(Cc2ccc(Cl)s2)c2c(C(F)(F)F)cccc2C12COc1cc3c(cc12)OCO3` (stereo not drawn) [Example 4.75, 1-[(5-chloro-2-thienyl)methyl]-7′-(trifluoromethyl)spiro[furo[2,3-f][1,3]benzodioxole-7,3′-indol]-2′(1′H)-one] are 165 to 166 °C, 0.1 to 1 µM and more than 50%.
`CC(C)c1ncc(CN2C(=O)C3(COc4cc5c(cc43)OCO5)c3cccc(C(F)(F)F)c32)s1` (stereo not drawn) [Example 4.76, 1′-[(2-isopropyl-1,3-thiazol-5-yl)methyl]-7′-(trifluoromethyl)spiro[furo[2,3-f][1,3]benzodioxole-7,3′-indol]-2′(1′H)-one]: the melting point fell in the range of 101 to 103 °C. Besides, in the data set with sodium channel, the IC50 was in the range of 0.1 to 1 µM. In addition, the inhibition at 10 µM on CYP3A4 was more than 50%.
In turn, `CC(C)c1ncc(CN2C(=O)C3(COc4cc5c(cc43)OCO5)c3ccccc32)o1` (stereo not drawn) [Example 4.77, 1′-[(2-isopropyl-1,3-oxazol-5-yl)methyl]spiro[furo[2,3-f][1,3]benzodioxole-7,3′-indol]-2′(1′H)-one] returned a melting point of 75 to 77 °C. Also, the IC50 with sodium channel was in the range of 0.001 to 0.1 µM. Further, the inhibition at 10 µM on CYP3A4 was more than 50%.

For orientation: IC50 means the midpoint of a concentration-inhibition curve. Usually melting point stands for the temperature of the solid-liquid transition. As a reminder, the inhibition is the share of the control response that was lost under treatment.
